One substance from US9995734B2, “Human T cell line assay for evaluating the immunologic identity of glatiramer acetate preparations” (Mylan Inc., priority 2013, dated 2018) can be followed below.

This assay relates to Donor 3 COP T-cell lines (165-B6C, 165-C7C, 165-D3C, 165-F3C, 165-F6C). Put plainly: MHC DR restriction testing (ATP proliferation with autologous and partially HLA-DR matched APC), Donor 3 COP T-cell lines. The class given is cell-based, human. Particulars: 20 μg/mL. On the procedure: MHC DR restriction testing of cell lines was carried out by measuring the proliferation response of the cell lines as described above in the presence of an array of APC selected based on the known HLA-DR loci of the original PBMC donor for the cell line tested, including autologous APC (B-LCL). The donors used are described in Table 2.
To define the MHC molecule used to present antigen to GA specific T cell lines, GA specific responses were measured in the presence of autologous APC and in the presence of APC matching one of the T cell donor's HLA-DR alleles. Therefore at least 3 APC were used in each experiment: autologous APC, APC matching DR allele 1 but not allele 2 and a third APC matching allele 2 but not allele 1. In some experiments a fourth APC B-LCL was used. A no antigen negative control was used. APC were inactivated by incubation with 50 ug/mL mitomycin C. Following inactivation, cells were washed three times to remove mitomycin C and suspended in X-VIVO 15 medium at 1×10^6 cells per mL. GA was added to the cell suspension to a final concentration of 20-60 μg/mL. The cells were incubated with antigen for 1 hour at 37° C. to allow antigen uptake and binding. The cell suspension was then centrifuged to pellet the cells and the cell pellet was washed once with medium. APC were adjusted to 2×10^5 cells per mL in X-VIVO 15 medium and added to opaque 96-well plates at 100 μL per well. T-cell suspensions of 2-4×10^5 cells per mL (unless otherwise specified) were added to the 96-well plates at 100 μL per well and the cultures incubated 4 days before measuring cell numbers using CellTiter Glo® (to evaluate proliferation).
Alternatively, APC were not pulsed. Instead, each well contained 10 ug/mL antigen, 50 μl APC and 100 μL of T cells.
After incubating for 4 days at 37° C. (5% CO2), 100 μL were removed from each well, combined with 100 μL CellTiterGlo reagent, and luminescence was measured using a Packard Fusion. Results were expressed in relative light units (RLU).
As described in the Methods, T-cell lines were tested for MHC restriction by measuring proliferation following incubation with APC. Mitomycin-treated autologous APC, and test APC, e.g., from donors having at least one HLA-DR match with the original PBMC donor were employed. The values in the data tables below are in RLU.
Donor 3 T-cell line 165-B6C was assayed for proliferation, using mitomycin-treated APC from Donors 3, 5, and 6 that had been incubated in the presence or the absence of 20 μg/mL COP. T-cell line 165-B6C had been restimulated six times (not including the initial stimulation) with antigen before the MHC restriction assay was carried out. The data, shown in Table 68 and FIG. 12A, indicate that […] is restricted by HLA-DRβ1*11.
Donor 3 T-cell line 165-C7C was assayed for proliferation, using mitomycin-treated APC from Donors 3, 5, and 6 that had been incubated in the presence or the absence of 20 μg/mL COP. T-cell line 165-C7C had been restimulated five times (not including the initial stimulation) with antigen before the MHC restriction assay was carried out. The data, shown in Table 69 and FIG. 12B, indicate that […] is restricted by HLA-DRβ1*11.
T-cell line 165-D3C had been restimulated six times (not including the initial stimulation) with antigen before the MHC restriction assay was carried out. The data, shown in Table 70 and FIG. 13A, indicate that 165-D3Cis restricted by HLA-DRβ1*1501.
T-cell line 165-F3C had been restimulated eight times (not including the initial stimulation) with antigen before the MHC restriction assay was carried out. The data, shown in Table 71 and FIG. 13B, indicate that 165-F3C is restricted by HLA-DRβ1*11.
Donor 3 T-cell line 165-F6C was assayed for proliferation, using mitomycin-treated APC from Donors 3, 5, and 6 that had been incubated in the presence or the absence of 20 μg/mL COP. […]

For the substance glatiramer acetate [GMA], the “Proliferation with antigen-incubated APC” value by setting is: (T-cell line 165-B6C, B-LCL Donor 3 (Autologous) DRβ1*1501/DRβ1*11) 2237 RLU; (T-cell line 165-B6C, B-LCL Donor 5 DRβ1*01/DRβ1*11) 8944 RLU; (T-cell line 165-B6C, B-LCL Donor 6 DRβ1*1501/DRβ1*13) 322 RLU; (T-cell line 165-C7C, B-LCL Donor 3 (Autologous) DRβ1*1501/DRβ1*11) 13714 RLU; (T-cell line 165-C7C, B-LCL Donor 5 DRβ1*01/DRβ1*11) 94535 RLU; (T-cell line 165-C7C, B-LCL Donor 6 DRβ1*1501/DRβ1*13) 1189 RLU. Moreover, the “Proliferation with antigen-incubated APC” value reads like this: (T-cell line 165-D3C, B-LCL Donor 3 (Autologous) DRβ1*1501/DRβ1*11) 106840 RLU; (T-cell line 165-D3C, B-LCL Donor 5 DRβ1*01/DRβ1*11) 12173 RLU; (T-cell line 165-D3C, B-LCL Donor 7 DRβ1*1501/DRβ1*03) 149506 RLU; (T-cell line 165-F3C, B-LCL Donor 3 (Autologous) DRβ1*1501/DRβ1*11) 45559 RLU; (T-cell line 165-F3C, B-LCL Donor 5 DRβ1*01/DRβ1*11) 39565 RLU; (T-cell line 165-F3C, B-LCL Donor 6 DRβ1*1501/DRβ1*3) 7869 RLU. The “Proliferation with antigen-incubated APC” value by setting is: (T-cell line 165-F6C, B-LCL Donor 3 (Autologous) DRβ1*1501/DRβ1*11) 12562 RLU; (T-cell line 165-F6C, B-LCL Donor 5 DRβ1*01/DRβ1*11) 3142 RLU; (T-cell line 165-F6C, B-LCL Donor 6 DRβ1*1501/DRβ1*13) 30293 RLU.
